Test results from patent publication US10647673B2, “Acetophenone compound, preparation method thereof, and application thereof in fatty liver prevention and treatment” (Nanjing Bioenergy Medicine Science & Technology Co., Ltd., priority 2017, dated 2020).
“Also recorded” adds a separate entry of the source.

How the values were obtained:
Format in all cases: in vivo
[1] = test system: nutritive obesity C57 mice; experiment: Weight loss experiment in nutritive obesity C57 mice; set-up: key to body weight of mice: body weight in g; conditions: for body weight of mice: high-fat diet, orlistat 40 mg/kg, Compounds 13 and 14 80 mg/kg intragastric, x ± s, n = 6; for effect on body weight compared with Orlistat (in words) / effect on body weight (in words): nutritive obesity C57 mice; for effect on body weight compared with Orlistat (in words): 80 mg/kg vs orlistat 40 mg/kg; for effect on body weight (in words): 80 mg/kg, as compared with Model group
Source text: C57 mice, male, 18-20 g of body weight. The mice were randomly divided into Control group, Model group, Orlistat group, Compound 13 group and Compound 14 group, with 6 mice in each group.
(§1) appropriate amounts of orlistat, Compound 13 and Compound 14 were weighed respectively, added with 0.5% CMC-Na and grinded to dissolve.
The mice in Control group were fed with normal diet, and the other mice were fed with high-fat diet. All of the mice had free access to water. After one week of feeding, the pharmaceuticals were intragastrically administrated. The dose was 40 mg/kg body weight for orlistat, 80 mg/kg for Compounds 13 and 14. The body weight of the mice was weighed every week during the experiment which lasted for 28 days.

[2] = test system: fatty liver of the SD rats; experiment: Pathological sections and grading of fatty liver of SD rats; conditions: compounds 80 mg/kg, Sim 10 mg/kg, OCA 10 mg/kg
Protocol: 500 g of lard oil was taken, placed in a container, and heated to melt. When the temperature rose to 100° C., it was added with 200 g of cholesterol to dissolve completely, and then further added with 20 g of propylthiouracil. The resulted mixture was stirred well, and added with 500 ml of Tween 80 after dissolution, resulting in an oil phase. At the same time, 600 mL of distilled water and 400 mL of 1,2-propanediol were taken and heated to 60° C. in a water bath, then were added with 40 g of sodium deoxycholate. The resulted mixture was stirred well until realizing complete dissolution, so as to give an aqueous phase. The aqueous phase was added into the oil phase and mixed well to give a lipid emulsion. The lipid emulsion was heated in a water bath of 37° C. before intragastric administration to animals.
An appropriate amount of pharmaceutical was weighed, added with 0.5% CMC-Na, and mixed homogeneously by grinding. There are groups for Compound 01 (80 mg/kg), Compound 02 (80 mg/kg), Compound 03 (80 mg/kg), Compound 04 (80 mg/kg), Compound 05 (80 mg/kg), Compound 06 (80 mg)/kg), Compound 07 (80 mg/kg), Compound 08 (80 mg/kg), Compound 09 (80 mg/kg), Compound 10 (80 mg/kg), Compound 11 (80 mg/kg), Compound 12 (80 mg/kg), Compound 13 (80 mg/kg), Compound 14 (80 mg/kg), Compound 15 (80 mg/kg), Compound 16 (80 mg/kg), Compound 17 (80 mg/kg), Compound 18 (80 mg/kg), Compound 19 (80 mg/kg), Compound 20 (80 mg/kg), Compound 21 (80 mg/kg), and Compound 22 (80 mg/kg).
Male SD rats weighing 180-200 g were fed adaptively for 7 days. Based on body weight, 10 animals were used as control and the remaining animals were intragastrically administered with the lipid emulsion every day, 1 ml/100 g body weight for 14 days. After fasting for 12 hours, 1 mL of blood was collected from the orbits of the animals, and was determined by Hitachi Automatic Biochemical Analyzer 7080 for serum cholesterol (CHO), triglyceride (TG), low density lipoprotein (LDL-C) and high density lipoprotein (HDL-C).
The modeled rats were continued with the intragastric administration of the lipid emulsion. At the same time, the pharmaceutical-administered groups were administrated with a corresponding dose of pharmaceuticals, while the Model group was administrated with an equal volume of solvent. The pharmaceutical-administered groups were administrated with the lipid emulsion in the morning, and with the pharmaceuticals in the afternoon. The animals were measured for the body weight once a week, and were observed. After 14 days of continuous administration, 1 mL of blood was collected from the orbits, and was determined for the contents of triglyceride, cholesterol, low density lipoprotein and high density lipoprotein in blood serum.

ob/ob mice = experiment: Weight loss experiment in ob/ob mice; conditions: for body weight of ob/ob mice: orlistat 40 mg/kg, other pharmaceuticals 80 mg/kg intragastric, x ± s, n = 6; for effect on body weight compared with Orlistat (in words) / effect on body weight (in words): ob/ob mice; for effect on body weight compared with Orlistat (in words): 80 mg/kg vs orlistat 40 mg/kg; for effect on body weight (in words): 80 mg/kg, as compared with Model group
Source text: […] ob/ob mice, male, 18-20 g of body weight, fed adaptively for one week before use. The mice were randomly divided into Control group, Model group, Orlistat group, Compound 13 group and Compound 14 group, with 6 mice in each group.
as §1
After feeding for one week, the mice were intragastrically administrated with the pharmaceuticals except the mice of Control group. The dose was 40 mg/kg body weight for orlistat, 80 mg/kg for the other pharmaceuticals. The body weight of the mice was weighed every week during the experiment which lasted for 28 days.

[3] = Experiment Day 0, in g (unit assumed)
[4] = Experiment Day 7, in g (unit assumed)
[5] = Experiment Day 14, in g (unit assumed)
[6] = Experiment Day 21, in g (unit assumed)

Compound | body weight of mice [1, 3] | body weight of mice [1, 4] | body weight of mice [1, 5] | body weight of mice [1, 6] | body weight of mice ([1]; Experiment Day 28) | effect on body weight compared with Orlistat (in words) [1] | effect on body weight (in words) [1] | Pathological grading: Steatotic hepatocytes ([2]; animal 1) | Pathological grading: Steatotic hepatocytes ([2]; animal 2) | Pathological grading: Steatotic hepatocytes ([2]; animal 3) | Pathological grading: Steatotic hepatocytes ([2]; animal 4) | Pathological grading: Steatotic hepatocytes ([2]; animal 5) | body weight of ob/ob mice (ob/ob mice; [3]) | body weight of ob/ob mice (ob/ob mice; [4]) | body weight of ob/ob mice (ob/ob mice; [5]) | body weight of ob/ob mice (ob/ob mice; [6]) | body weight of ob/ob mice (ob/ob mice; Experiment Day 28) | effect on body weight compared with Orlistat (in words) (ob/ob mice) | effect on body weight (in words) (ob/ob mice) | Pathological grading: Infiltration of inflammatory cells ([2]; animal 1)
CC(=O)c1ccc(O)c(OC(=O)C(C)(C)CCCOc2cc(C)ccc2C)c1 [Compound 13] | 17.20 ± 1.92 | 19.97 ± 0.57 | 21.04 ± 0.29 | 22.14 ± 0.31 | 23.25 ± 0.26 | better effect than Orlistat | obvious effects on weight loss; also recorded: significantly decrease the body weight of the mice from Day 14 | + (25-45% of hepatocytes undergoing steatosis) | ++ (45-65% of hepatocytes undergoing steatosis) | + (25-45% of hepatocytes undergoing steatosis) | ++ (45-65% of hepatocytes undergoing steatosis) | ++ (45-65% of hepatocytes undergoing steatosis) | 20.74 ± 1.10 | 21.43 ± 0.61 | 22.10 ± 0.16 | 24.53 ± 1.76 | 26.10 ± 1.95 | better effect than Orlistat | obvious effects on weight loss; also recorded: significantly decrease the body weight of the ob/ob mice | 
CC(=O)c1ccc(O)c(OC(=O)c2cccnc2)c1 [Compound 14] | 17.21 ± 1.57 | 19.83 ± 0.71 | 20.87 ± 0.75 | 21.89 ± 0.77 | 22.92 ± 0.88 | better effect than Orlistat | obvious effects on weight loss; also recorded: significantly decrease the body weight of the mice from Day 14 | + (25-45% of hepatocytes undergoing steatosis) |  | + (25-45% of hepatocytes undergoing steatosis) | + (25-45% of hepatocytes undergoing steatosis) |  | 20.79 ± 0.39 | 21.22 ± 0.38 | 22.18 ± 0.42 | 24.10 ± 0.45 | 26.17 ± 0.86 | better effect than Orlistat | obvious effects on weight loss; also recorded: significantly decrease the body weight of the ob/ob mice | 0
